Assays:
Assay in all cases: PRE emergent soil treatment, weed control
Assay type in all cases: in vivo
Settings in all cases: applied to soil, 250 g/ha
[1] = tested on: lambsquarters (Chenopodium album)
Description: (§1) Compound B was applied to soil as a PRE emergent treatment at the rate of 250 g/ha. The broadleaf weed species velvetleaf (Abutilon theophrasti), redroot pigweed (Amaranthus retroflexus) and lambsquarters (Chenopodium album) were all 100% controlled by this treatment.

[2] = tested on: redroot pigweed (Amaranthus retroflexus)
Description: as §1

[3] = tested on: velvetleaf (Abutilon theophrasti)
Description: as §1

Measured: controlled (weed control)

CC(C)=Nn1c(C(F)(F)F)cc(=O)n(-c2cc(Oc3ccccc3[N+](=O)[O-])c(Cl)cc2F)c1=O [Compound B, 3-[4-hloro-2-fluoro-5-(2-nitrophenoxy)phenyl]-1-[(1-methylethylidene)amino]-6-(trifluoromethyl)-2,4(1H,3H)-pyrimidinedione]
100%: all assays above
